What was measured:
[1] = tested on: ARID2-deficient melanomas UACC62 cells; test: Quantification of cell number using crystal violet staining (FIGS. 4A, 4B); assay type: cell-based
[2] = tested on: melanoma cell and melanocyte; test: Viability by cell-titer Glo assay (FIGS. 14A, 14B); assay type: cell-based; conditions: varying amounts; melanoma cells and melanocytes
Experimental: FIGS. 14A and 14B show melanoma cell and melanocyte are sensitive to G9a inhibitors. Indicated cell types were treated with varying amounts of (FIG. 14A) UNC0638 or (FIG. 14B) BIX01294 and viability was measured by cell-titer Glo assay.

[3] = tested on: ARID2-deficient cell lines; test: Combination therapy heatmaps, cell viability, isogenically matched engineered melanoma lines (FIG. 8); assay type: cell-based; conditions: ARID2-deficient vs matched lines
Source text: FIG. 8 summarizes the combination therapy on isogenically matched engineered ARID-deficient melanoma cell lines. Heatmaps showing cell viability after treatment with the G9a inhibitor BIX-01294 in combination with other small molecule inhibitors (bromodomain inhibitor JQ1 and BRAF inhibitor PLX).

[4] = tested on: ARID-deficient LOX-IMVI cell line; test: Combination therapy heatmaps, cell viability, endogenous ARID-deficient melanoma lines (FIG. 9); assay type: cell-based; conditions: G9a inhibitor in combination with HDAC inhibitor SAHA; LOX-IMVI compared to ARID wildtype A375
Source text: FIG. 9 summarizes the combination therapy on endogenous ARID-deficient melanoma cell lines.

[5] = tested on: melanoma cell lines (n=22); test: LD50 of melanoma cell lines versus ARID2 mutational status (FIGS. 5A, 5B); assay type: cell-based; conditions: 22 melanoma cell lines; ARID2 mutant vs other lines
Source text: LD50 value of each melanoma cell line plotted for the two G9a inhibitors UNC0638 and BIX-01294. (n=22). ARID2 mutant cell lines indicated in closed circles.

H3K9 = test: Histone western blot of cells treated with G9a inhibitors (FIGS. 6A, 6B); assay type: cell-based; conditions: UACC257 cell line
Source text: (§1) The G9a and EZH2 methyltransferases are known to target H3K9 and H3K27, respectively.

ARID2-deficient cells = test: Selective susceptibility of ARID2-knockdown melanoma lines to G9a inhibitors (FIG. 3); assay type: cell-based; conditions: ARID2-knockdown of two different melanoma lines
H3K27 = test: Histone western blot of cells treated with EZH2 inhibitors (FIGS. 6A, 6B); assay type: cell-based; conditions: UACC257 cell line
Source text: as §1

[6] = tested on: UACC257 human melanoma cells with ARID2 deficiency; test: Dose response of melanoma cells to the G9a inhibitor (FIG. 2); assay type: cell-based; conditions: UACC257 shARID2 knockdown vs isogenically matched control (shLuc) cells
Experimental: ARID2 deficiency is simulated the cells using an RNAi shARID2 to knockdown expression of ARID2. For control, the same cell lines are treated with a control RNAi shLuc instead of shARID2.

[7] = tested on: G9a-amplified melanoma cell line, K029; test: Tumor growth of subcutaneously inoculated K029 cells in SCID mice (FIG. 16); assay type: in vivo; conditions: K029 subcutaneous in SCID mice; 2.5 mg/kg daily ip from 8 days after inoculation
Experimental: G9a-amplified melanoma cell line, K029, was subcutaneously inoculated on SCID mice (5×10^6 cells/[…] PBS). Vehicle (10% DMSO/PBS) or UNC0642 (2.5 mg/kg) was daily administrated by ip injection 8 days after K029 inoculation.

[8] = BIX-01294 in combination with bromodomain inhibitor JQ1

| SMILES | cell number (crystal violet staining) [1] | viability (cell-titer Glo) [2] | drug synergy (cell viability) [3, 8] | drug synergy (cell viability) [4] | sensitivity (LD50) versus ARID2 mutation [5] | methylation marks at H3K9 (histone western blot) (H3K9) | sensitivity of ARID2-knockdown cells to G9a inhibitors (ARID2-deficient cells) | also measured |
| --- | --- | --- | --- | --- | --- | --- | --- | --- |
| COc1cc2nc(N3CCCN(C)CC3)nc(NC3CCN(Cc4ccccc4)CC3)c2cc1OC [BIX-01294] | selective vulnerability | sensitive | selectively enhanced | selectively enhanced | ARID2 mutation predicts the sensitivity | selective and specific decrease in the methylation marks | sensitive | drug synergy (cell viability) ([3]; BIX-01294 in combination with BRAF inhibitor PLX): selectively enhanced |
| CC[C@H](C)n1cc(C)c2c(C(=O)NCc3c(C)cc(C)[nH]c3=O)cc(-c3ccc(N4CCNCC4)nc3)cc21 [GSK126] | – | – | – | – | – | – | – | methylation marks at H3K27 (histone western blot) (H3K27): selective and specific decrease in the methylation marks |
| Cc1sc2c(c1C)C(c1ccc(Cl)cc1)=N[C@@H](CC(=O)OC(C)(C)C)c1nnc(C)n1-2 [JQ1] | – | – | selectively enhanced | – | – | – | – | – |
| O=C(CCCCCCC(=O)Nc1ccccc1)NO [SAHA, suberoylanilide hydroxamic acid] | – | – | – | selectively enhanced | – | – | – | – |
| COc1cc2c(NC3CCN(C(C)C)CC3)nc(C3CCCCC3)nc2cc1OCCCN1CCCC1 [UNC0638] | selective vulnerability | sensitive | – | selectively enhanced | ARID2 mutation predicts the sensitivity | selective and specific decrease in the methylation marks | sensitive | susceptibility to the G9a inhibitor (dose response) [6]: more susceptible |
| COc1cc2c(NC3CCN(C(C)C)CC3)nc(N3CCC(F)(F)CC3)nc2cc1OCCCN1CCCC1 [UNC0642] | – | – | – | – | – | – | – | tumor growth [7]: effectively suppress tumor growth |

Reference: patent publication US11433068B2, “Treatment of cancers having alterations within the SWI/SNF chromatin remodeling complex” (THE GENERAL HOSPITAL CORPORATION, priority 2016, dated 2022)
